The results in this text go back to patent US12630498B2 (Genzyme Corporation, priority 2019, dated 2026).

The term EC50 denotes the concentration needed to bring the measured effect to its halfway point. Read a high EC50 as a need for much substance. Broadly, the Emax is the maximal effect, on the per cent scale that the assay sets.

The target in experiment [1] is T1, CFTR-mediated transepithelial chloride transport in primary human bronchial epithelial cells from a ΔF508 homozygous CF donor (Homo sapiens, UniProt P13569, DEL508-508).
T1 construct: Primary human bronchial epithelial cells from a ΔF508 homozygous CF donor; host or cells: primary CF-HBE cells, ΔF508 homozygous donor
Kind of experiment: TECC24 recording of CFTR-mediated transepithelial chloride transport in CF-HBE cells (AUC fold over DMSO). The conditions noted are these: test agent 10 μM, 48 hours incubation, AUC of forskolin-stimulated IEQ relative to DMSO. Format: cell-based. The method, then: Example 316: TECC24 AUC Fold Over DMSO @ 10 uM
The effects of a test agent on CFTR-mediated transepithelial chloride transport was measured using TECC24 recording analysis. Test agents were solubilized in DMSO. Solubilized test agents were mixed with incubation medium containing DMEM/F12, Ultroser G (2%; Crescent Chemical, catalog #67042), Hyclone Fetal Clone II (2%; GE Healthcare, catalog #SH30066.02), bovine brain extract (0.25%; Lonza, catalog #CC-4098), insulin (2.5 μg/mL), IL-13 (10 ng/mL), hydrocortisone (20 nM), transferrin (2.5 μg/mL), triiodothyronine (500 nM), ethanolamine (250 nM), epinephrine (1.5 μM), phosphoethanolamine (250 nM), and retinoic acid (10 nM). Primary human bronchial epithelial cells from a ΔF508 homozygous CF donor (CF-HBE cells; from University of North Carolina Cystic Fibrosis Tissue Procurement Center), grown on Transwell HTS 24-well cell culture inserts (Costar, catalog #3378), were exposed to test agents or controls dissolved in incubation medium. The CF-HBE cells were cultured at 36.5° C. for 48 hours before TECC24 recordings were performed in the presence or absence of test agent, a positive control or vehicle (DMSO).
Following incubation, the transwell cell culture inserts containing the test agent or control-treated CF-HBE cells were loaded onto a TECC24 apparatus (TECC v7 or MTECC v2; EP Design) to record the transepithelial voltage (VT) and resistance (TEER) using 4 AgCl electrodes per well configured in current-clamp mode. The apical and basolateral bath solutions both contained (in mM) 140 NaCl, 5 KCl, 2 CaCl2), 1 MgCl2, 10 Hepes, and 10 glucose (adjusted to pH 7.4 with NaOH). To inhibit basal Na+ absorption, the ENaC inhibitor benzamil (10 μM) was added to the bath. Then, the adenylate cyclase activator, forskolin (10 μM), was added to the bath to activate CFTR. The forskolin-stimulated Cl-transport was halted by addition of CFTR inhibitor-172 (20 μM) to the bath at the end of the experiment to confirm specificity. VT and TEER recordings were digitally acquired at routine intervals using TECC or MTECC software (EP Design). VT and TEER were transformed into equivalent transepithelial Cl-current (IEQ), and the Area Under the Curve (AUC) of the IEQ time course between forskolin and CFTR inhibitor-172 addition was generated using Excel (Microsoft). Efficacy is expressed as the ratio of the test agent AUC divided by vehicle AUC. EC50s based on AUC are generated using the non-linear regression log(agonist) vs. response function in Prism software (GraphPad) with Hill Slope fixed=1.
If a test agent increased the AUC of the forskolin-stimulated IEQ relative to vehicle in CF-HBE cells, and this increase was inhibited by CFTR inhibitor-172, then the test agent was considered a CFTR corrector.

Experiment [2] addresses T2, human Cystic Fibrosis Transmembrane Conductance Regulator (CFTR) harboring the ΔF508 mutation (Homo sapiens, UniProt P13569, DEL508-508).
T2 construct: expressed in transfected cells; host or cells: H441 carcinoma line (G418-selected)
Briefly: H441 cell ΔF508-CFTR-HRP cell surface assay (Emax and EC50). Format: cell-based. The note with it: for Emax: NCI-H441, NA = Not active. In short, it runs like this: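 H441 and 41o- bronchial epithelial cells expressing ΔF508-CFTR with an extracellular-loop-4 HRP tag were treated with a 15-point compound series (24.5–0.001 μM) for two nights, H441 at 27° C, 41o- at 37° C with 0.0005 mg/ml doxycycline. Surface HRP luminescence read; % of maximum VX809 signal and EC50 derived.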

T2 sequence (P13569 with tags, fused parts or gaps DEL508-508): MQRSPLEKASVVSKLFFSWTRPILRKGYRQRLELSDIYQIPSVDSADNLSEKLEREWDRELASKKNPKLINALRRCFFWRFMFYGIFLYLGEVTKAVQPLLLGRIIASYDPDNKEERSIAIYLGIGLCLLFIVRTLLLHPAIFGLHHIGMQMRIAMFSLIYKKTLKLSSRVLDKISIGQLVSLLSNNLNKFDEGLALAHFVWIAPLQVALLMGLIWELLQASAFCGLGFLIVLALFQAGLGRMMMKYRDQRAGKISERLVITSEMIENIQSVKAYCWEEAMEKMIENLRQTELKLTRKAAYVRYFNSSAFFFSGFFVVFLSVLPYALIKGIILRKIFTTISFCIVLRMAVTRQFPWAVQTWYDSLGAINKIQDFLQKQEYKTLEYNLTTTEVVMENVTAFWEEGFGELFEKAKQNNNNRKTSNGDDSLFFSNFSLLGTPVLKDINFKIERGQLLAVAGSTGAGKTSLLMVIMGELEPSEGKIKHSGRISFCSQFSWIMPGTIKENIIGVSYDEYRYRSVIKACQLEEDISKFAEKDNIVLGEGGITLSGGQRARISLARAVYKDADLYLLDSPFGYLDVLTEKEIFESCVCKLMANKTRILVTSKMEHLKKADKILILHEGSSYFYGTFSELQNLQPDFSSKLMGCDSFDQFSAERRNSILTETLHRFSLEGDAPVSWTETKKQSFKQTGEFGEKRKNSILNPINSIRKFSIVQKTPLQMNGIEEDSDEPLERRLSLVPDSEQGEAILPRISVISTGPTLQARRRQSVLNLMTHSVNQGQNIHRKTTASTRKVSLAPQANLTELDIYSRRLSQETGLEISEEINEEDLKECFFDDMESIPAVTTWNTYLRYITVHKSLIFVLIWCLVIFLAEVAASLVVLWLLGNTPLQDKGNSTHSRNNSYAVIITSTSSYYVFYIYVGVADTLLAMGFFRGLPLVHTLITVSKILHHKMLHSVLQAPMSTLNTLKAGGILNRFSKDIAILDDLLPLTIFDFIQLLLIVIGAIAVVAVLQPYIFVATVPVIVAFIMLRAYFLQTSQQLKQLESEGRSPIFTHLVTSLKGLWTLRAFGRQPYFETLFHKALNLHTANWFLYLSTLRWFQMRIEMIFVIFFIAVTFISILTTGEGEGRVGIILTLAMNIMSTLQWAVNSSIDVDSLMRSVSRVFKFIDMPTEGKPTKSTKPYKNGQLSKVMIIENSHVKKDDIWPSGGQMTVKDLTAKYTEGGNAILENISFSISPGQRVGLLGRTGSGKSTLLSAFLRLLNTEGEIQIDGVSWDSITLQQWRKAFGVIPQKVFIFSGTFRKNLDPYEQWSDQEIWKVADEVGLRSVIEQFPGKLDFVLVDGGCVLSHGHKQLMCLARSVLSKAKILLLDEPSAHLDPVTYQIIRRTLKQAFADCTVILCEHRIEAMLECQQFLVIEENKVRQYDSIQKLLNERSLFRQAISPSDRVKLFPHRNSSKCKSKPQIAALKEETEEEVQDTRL
T1 sequence (P13569 with tags, fused parts or gaps DEL508-508): as above

Take `CC(OCc1ccccc1)[C@H](NC(=O)c1ccc2ccccc2c1OCc1ccc(OC(F)(F)F)cc1)C(=O)O` (stereo in doubt) [Example 188, O-benzyl-N-(1-((4-(trifluoromethoxy)benzyl)oxy)-2-naphthoyl)-L-allothreonine]: the “TECC24 AUC fold over DMSO @10 μM” value in experiment [1] is reported as “C (“C” refers to AUC @10 uM <4)”.

For the compound `C[C@@H](OCc1ccccc1)[C@H](NC(=O)c1ccc2cc(F)ccc2c1OCC1CCCCC1)C(=O)O` (stereo in doubt) [Example 202], in experiment [2], the response was half-maximal at 4100 nM (EC50) and the Emax came out at 112%. In experiment [1], the “TECC24 AUC fold over DMSO @10 μM” value is recorded as “C (“C” refers to AUC @10 uM <4)”.

For the compound `C[C@@H](OCc1ccccc1)[C@H](NC(=O)c1ccc2ccccc2c1OCc1ccc(Cl)c(Cl)c1)C(=O)O` (stereo in doubt) [Example 206], the Emax in experiment [2] came out at 4.7%. Moreover, the “TECC24 AUC fold over DMSO @10 μM” value in experiment [1] is given as “C (“C” refers to AUC @10 uM <4)”.

In experiment [2], `CC(OCc1ccccc1)[C@H](NC(=O)c1ccc2cc(F)ccc2c1OCc1ccc(Cl)c(Cl)c1)C(=O)O` (stereo in doubt) [Example 208, O-benzyl-N-(1-((3,4-dichlorobenzyl)oxy)-6-fluoro-2-naphthoyl)-L-allothreonine] displayed an EC50 of 1500 nM and a maximum response (Emax) of 154%. The “TECC24 AUC fold over DMSO @10 μM” value in experiment [1] is reported as “C (“C” refers to AUC @10 uM <4)”.

Turning to `CC1(C(NC(=O)c2ccc3ccccc3c2OCc2ccc(OC(F)(F)F)cc2)C(=O)O)CCCCC1` (stereo not drawn) [Example 1, 2-(1-methylcyclohexyl)-2-[[1-[[4-(trifluoromethoxy)phenyl]methoxy]naphthalene-2-carbonyl]amino]acetic Acid], in experiment [2], the EC50 was 700 nM and the Emax stood at 164%. Besides, the “TECC24 AUC fold over DMSO @10 μM” value in experiment [1] is listed as “B (“B” refers to AUC @10 uM between 4-6)”.

Take `CC(C)(c1ccccc1)[C@H](NC(=O)c1ccc2ccccc2c1OCc1ccc(SC(F)(F)F)cc1)C(=O)O` [Example 5, (S)-3-methyl-3-phenyl-2-(1-((4-((trifluoromethyl)thio)benzyl)oxy)-2-naphthamido)butanoic Acid]: in experiment [2], the EC50 amounted to 800 nM and the Emax came to 100%. Also, in experiment [1], the “TECC24 AUC fold over DMSO @10 μM” value is recorded as “C (“C” refers to AUC @10 uM <4)”.

In experiment [2], `CC(C)(c1ccccc1)[C@H](NC(=O)c1ccc2ccccc2c1OCc1ccc(C(F)(F)F)cc1)C(=O)O` [Example 9, (S)-3-methyl-3-phenyl-2-(1-((4-(trifluoromethyl)benzyl)oxy)-2-naphthamido)butanoic Acid] yielded an EC50 of 1100 nM and an Emax of 88.4%. For the same compound, in experiment [1], the “TECC24 AUC fold over DMSO @10 μM” value is given as “C (“C” refers to AUC @10 uM <4)”.

Take `CC(C)(c1ccccc1)[C@H](NC(=O)c1ccc2cc(F)ccc2c1OCc1ccc(SC(F)(F)F)cc1)C(=O)O` [Example 10, (S)-2-(6-fluoro-1-((4-((trifluoromethyl)thio)benzyl)oxy)-2-naphthamido)-3-methyl-3-phenylbutanoic Acid]: in experiment [1], the “TECC24 AUC fold over DMSO @10 μM” value is reported as “C (“C” refers to AUC @10 uM <4)”.

As for `O=C(N[C@H](C(=O)O)C12CC(C(F)(F)F)(C1)C2)c1ccc2ccccc2c1OCc1ccc(C(F)(F)F)cc1` [Example 13, (S)-2-(1-((4-(trifluoromethyl)benzyl)oxy)-2-naphthamido)-2-(3-(trifluoromethyl)bicyclo[1.1.1]pentan-1-yl)acetic Acid], in experiment [2], it took 1200 nM to reach a half-maximal effect (EC50) and the Emax was determined as 81.3%. The “TECC24 AUC fold over DMSO @10 μM” value in experiment [1] is given as “C (“C” refers to AUC @10 uM <4)”.

For `O=C(N[C@H](C(=O)O)C12CCC(CC1)C2)c1ccc2ccccc2c1OCc1ccc(OC(F)(F)F)cc1` [Example 14, (S)-2-((1r,4S)-bicyclo[2.2.1]heptan-1-yl)-2-(1-((4-(trifluoromethoxy)benzyl)oxy)-2-naphthamido)acetic Acid], in experiment [2], the EC50 was 100 nM and the Emax was determined as 103%. Further, the “TECC24 AUC fold over DMSO @10 μM” value in experiment [1] was “B (“B” refers to AUC @10 uM between 4-6)”.

In the case of `O=C(N[C@H](C(=O)O)C12CC(C(F)(F)F)(C1)C2)c1ccc2ccccc2c1OCc1ccc(SC(F)(F)F)cc1` [Example 17, (S)-2-(3-(trifluoromethyl)bicyclo[1.1.1]pentan-1-yl)-2-(1-((4-((trifluoromethyl)thio)benzyl)oxy)-2-naphthamido)acetic Acid], in experiment [2], the EC50 was found to be 700 nM and the Emax was determined as 63.9%. For the same compound, the “TECC24 AUC fold over DMSO @10 μM” value in experiment [1] was “C (“C” refers to AUC @10 uM <4)”.

Regarding `CC(C)(C)[C@H](NC(=O)c1ccc2cc(F)ccc2c1OCc1ccc(OC(F)(F)F)cc1)C(=O)O` [Example 19, (S)-2-(6-fluoro-1-((4-(trifluoromethoxy)benzyl)oxy)-2-naphthamido)-3,3-dimethylbutanoic Acid], in experiment [2], the EC50 amounted to 21900 nM and the Emax turned out to be 48.3%. Moreover, the “TECC24 AUC fold over DMSO @10 μM” value in experiment [1] is “C (“C” refers to AUC @10 uM <4)”.

In experiment [2], `CC(C)(C)[C@H](NC(=O)c1ccc2ccccc2c1OCc1ccc(C(F)(F)F)c(F)c1)C(=O)O` [Example 25, (S)-2-(1-((3-fluoro-4-(trifluoromethyl)benzyl)oxy)-2-naphthamido)-3,3-dimethylbutanoic Acid] had an EC50 of 500 nM and an Emax of 287%. In addition, the “TECC24 AUC fold over DMSO @10 μM” value in experiment [1] was “C (“C” refers to AUC @10 uM <4)”.

As to `CC(C)(C)[C@H](NC(=O)c1ccc2ccccc2c1OC[C@H]1CC[C@@H](C(F)(F)F)CC1)C(=O)O` [Example 26, (S)-3,3-dimethyl-2-(1-(((1s,4R)-4-(trifluoromethyl)cyclohexyl)methoxy)-2-naphthamido)butanoic Acid], in experiment [2], the response was half-maximal at 4600 nM (EC50) and the Emax turned out to be 98.8%. The “TECC24 AUC fold over DMSO @10 μM” value in experiment [1] is “C (“C” refers to AUC @10 uM <4)”.

For `CC(C)(C)[C@H](NC(=O)c1ccc2cc(F)ccc2c1OCc1ccc(C(F)(F)F)cc1)C(=O)O` [Example 27, (S)-2-(6-fluoro-1-((4-(trifluoromethyl)benzyl)oxy)-2-naphthamido)-3,3-dimethylbutanoic Acid], in experiment [2], the EC50 amounted to 600 nM and the Emax came to 134%. Besides, in experiment [1], the “TECC24 AUC fold over DMSO @10 μM” value was “B (“B” refers to AUC @10 uM between 4-6)”.

For the compound `O=C(N[C@@H](Cc1ccccc1)C(=O)O)c1ccc2ccccc2c1OCc1ccc(F)cc1` [Example 94], in experiment [1], the “TECC24 AUC fold over DMSO @10 μM” value was “C (“C” refers to AUC @10 uM <4)”.

With `CC(C)(C)c1ccc(COc2c(C(=O)N[C@@H](Cc3ccccc3)C(=O)O)ccc3ccccc23)cc1` [Example 96, (1-((4-(tert-butyl)benzyl)oxy)-2-naphthoyl)-L-phenylalanine], the “TECC24 AUC fold over DMSO @10 μM” value in experiment [1] was “C (“C” refers to AUC @10 uM <4)”.

Take `O=C(N[C@@H](Cc1ccc(C(F)(F)F)cc1)C(=O)O)c1ccc2cc(F)ccc2c1OCc1ccc(OC(F)(F)F)cc1` [Example 194, (S)-2-(6-fluoro-1-((4-(trifluoromethoxy)benzyl)oxy)-2-naphthamido)-3-(4-(trifluoromethyl)phenyl)propanoic Acid]: in experiment [1], the “TECC24 AUC fold over DMSO @10 μM” value is listed as “C (“C” refers to AUC @10 uM <4)”.

For the compound `CC(C)(C)C[C@H](NC(=O)c1ccc2cc(F)ccc2c1OCc1ccc(Cl)c(Cl)c1)C(=O)O` [Example 211, (S)-2-(1-((3,4-dichlorobenzyl)oxy)-6-fluoro-2-naphthamido)-4,4-dimethylpentanoic Acid], the “TECC24 AUC fold over DMSO @10 μM” value in experiment [1] is given as “C (“C” refers to AUC @10 uM <4)”.

As for `CCC(C)(C)[C@@H](NC(=O)c1ccc2ccc(C)cc2c1OCc1ccc(C(F)(F)F)cc1)C(=O)O` [Example 305, (R)-3,3-dimethyl-2-(7-methyl-1-((4-(trifluoromethyl)benzyl)oxy)-2-naphthamido)pentanoic Acid], in experiment [1], the “TECC24 AUC fold over DMSO @10 μM” value is “A (“A” refers to AUC @10 uM >6)”.
